Reference: patent US7429482B2, “Screening tools for discovery of novel anabolic agents” (United States of America as represented by the Department …, priority 2005, dated 2008)

Test system: MAFbx
Test: Acute denervation: MAFbx mRNA in EDL and soleus (qPCR)
Type: in vivo, rat
Details: nandrolone 1.5 mg/kg/wk 14 days
Experimental: Male Wistar rats weighing 250 gm (Taconic Farms, Germantown, N.Y.) were provided food and water ad libitum and were housed in a temperature and humidity controlled environment providing a 12:12 hour day-night cycle. For surgical procedures, animals were anesthetized with ketamine/xylazine. The left sciatic nerve was exposed by blunt dissection, and a 1 to 2 mm piece of this nerve was excised just below the level of the femoral head. A sham surgery was performed on the right hind limb in which the sciatic nerve was exposed but was not transected. Model 2002 Alzet pumps were implanted subcutaneously on the back. […] A pellet containing 15 mg of testosterone (Innovative Research of America, Sarasota, Fla.) administered as a continuous infusion (5 mg/wk), or a pellet containing placebo, was inserted into a subcutaneous pouch. […] Because testosterone is known to have anabolic actions (Ferrando et al., Am J Physiol Endocrinol Metab 282: E601-E607, 2002; Mauras et al., J Clin Endocrinol Metab 83: 1886-1892, 1998; Urban et al., Am J Physiol 269: E820-E826, 1995), reductions in levels of this hormone could affect muscle mass and confound interpretation of the results. Animals were euthanized 14 days later by inhalation of carbon dioxide. […]
Total RNA was extracted from skeletal muscle (20 mg) by homogenization in guanidine thiocyanate using a Polytron followed by extraction using phenol-chloroform (Chomczynski and Sacchi, Anal Biochem 162: 156-159, 1987). […] Total RNA was then eluted and quantified by absorbance at 260 nm. […] Levels of gene expression in the denervated muscle were expressed as fold induction relative to muscle from the sham-denervated leg of animals administered vehicle. […] Fold-induction was determined using the 2^−ΔΔCt method, using expression of 18S RNA as the normalization control. […]

With C[C@]12CC[C@H]3[C@@H](CCC4=CC(=O)CC[C@@H]43)[C@@H]1CC[C@@H]2O [nandrolone] the MAFbx expression (denervated EDL) was “reductions were not statistically significant”, the MAFbx expression (denervated soleus) was “significantly reduced” and the MAFbx expression (sham-denervated EDL or soleus) was “did not significantly alter”.
